Source: publication PMC5484146 (Journal of the American Chemical Society, 2016)

Assays:
[1] = 1 (800 µM), peaks disappear at 4.0 wt% Tw-80
Hydrogelation test = type: physicochemical; settings: 4 mM solution of 1, pH changed to pH 6.4, Figure S2
[2] = TEM / optical observation of assemblies and aggregates; type: physicochemical

## Nap-FFYGGaa [compound 1]
[1]
  size of the assemblies (DLS peaks): > 100 nm
ITC in PBS, no surfactant, 1 and 3 as assemblies
  binding with 2 by ITC, in words: too weak to be measured by ITC
ITC, 1.0 wt% of Tw-80, Figure 2C
  ITC heating profile on titration with 2, in words: release of heat
Hydrogelation test
  hydrogel formation: self-supporting gel
[2]; 500 µM suspension of 1, 24–48h after the addition, Figure S5
  appearance after addition of five equivalents of 2: opaque colloidal precipitate
[2]; 1 500 µM, pH 7.4, TEM
  morphology on direct addition in water: suspension consisting of nanoribbons

## CN[C@H](CC(C)C)C(=O)N[C@H]1C(=O)N[C@@H](CC(N)=O)C(=O)N[C@H]2C(=O)N[C@H]3C(=O)N[C@H](C(=O)N[C@H](C(=O)O)c4cc(O)cc(O)c4-c4cc3ccc4O)[C@H](O)c3ccc(c(Cl)c3)Oc3cc2cc(c3O)Oc2ccc(cc2Cl)[C@H]1O [vancomycin aglycon, reference compound]
[2]; TEM, Figure S20, short fibers were observed
  aggregate formation in EISA of 1P when it replaces 2: no aggregates were observed

## Nap-FFpYGGaa [1P]
[2]; 1P 500 µM, 1 eq. 2, pH 7.4, TEM aggregates largely unstructured
  appearance after addition of one equivalent of 2, without ALP: colloidal suspension
[2]; 1P 500 µM, 2 (1 eq.), ALP 1.25 U/mL, pH 7.4, TEM, precipitates over time
  morphology after simultaneous addition of 2 and ALP: large aggregates
[2]; 1P 500 µM, ALP 1.25 U/mL, pH 7.4, TEM
  morphology after ALP dephosphorylation in the absence of 2: long nanofibers
